Measured values taken from patent US20240294881A1, “CELL CULTURE SUPPLEMENT FOR PRODUCING STEM CELLS, AND METHOD FOR PRODUCING STEM CELLS” (OPTICELL, INC, priority 2021, published 2024).

Experiments:
Type in all cases: cell-based
[1] = tested on: healthy human neonatal fibroblasts; assay: Real-time PCR of undifferentiated stem cell and three germ layer marker genes in neonatal fibroblast spheroids (96-well round-bottom); conditions: day 20 of 3D spheroid culture, coated 96-well round-bottom; 2D control without supplement day 0 = 1.0; ΔΔCt
Experimental: To observe the spheroid formation and stem cell induction in healthy human neonatal fibroblasts over time, culture was performed by using a 96-well round-bottom culture vessel. An aqueous solution of the polypeptide represented by formula (1) (0.125%) (cell culture supplement) was added to a commercial polystyrene-made 96-well round-bottom culture vessel (Nunclon Delta 96U Bottom, Thermo Fisher Scientific) at 100 μL/well and allowed to stand at 4° C. for 24 hours. Thereafter, the excess cell culture supplement was removed, and the remaining solution was dried in a dryer at 37° C. for 96 hours to complete coating treatment with the cell culture supplement. Fibroblasts were maintained and cultured in a serum-free medium (Promo Cell; fibroblast basal medium, basic-FGF 5 ng/ml and insulin 2.5 μg/mL). The fibroblasts floating in the medium were seeded in the culture vessel coated with the cell culture supplement at 4×10^4 cells/well/100 μL and cultured at 37° C. under 5% CO2 conditions.
To investigate the expression mechanism of the undifferentiated stem cell marker genes found in Example 1 over time, real-time PCR analysis was performed by using the following three transcription factors: SOX2 (sex-determining region Y-box 2), OCT4 (octamer binding transcription factor 4), and NANOG (homeodomain transcription factor), and a TaqMan gene expression assay probe (B-actin) as an endogenous control gene. In the expression analysis, relative quantification was performed according to the ΔΔCt method (Delta Delta Ct method) (FIG. 8).
To determine whether stem cells induced from fibroblasts have a differentiation-inducing ability, analysis was conducted on the expression of genes associated with the three germ layers that indicate the early stages of differentiation. Fibroblasts were cultured in the same type of a 96-well culture vessel treated with the cell culture supplement as above according to the same method. Real-time PCR analysis was performed by using the following expression detection probes for the genes associated with differentiation into the three germ layers: SOX17 (sex-determining region Y-box 17; endoderm), HAND1 (Heart-and neural crest derivatives-expressed protein-1; mesoderm), and MAP2 (microtubule associated protein 2: ectoderm), and a TaqMan gene expression assay probe (ß-actin) as the endogenous control gene. In the expression analysis, relative quantification was performed according to the ΔΔCt method (Delta Delta Ct method) (FIG. 9).

[2] = tested on: healthy human adult mammary gland epithelial cells; assay: Real-time PCR of stem cell and three germ layer marker genes in mammary gland epithelial cell spheroids
Experimental: The analysis of expression of gene mRNA was performed by real-time PCR.
Specifically, on day 20 from the start of culture, spheroids were collected in a 15-mL centrifuge tube and centrifuged, and then washed with phosphate buffered saline (−) and collected. Two-dimensionally cultured cells in the culture vessel that was not coated with the cell culture supplement (control) (day 0) were washed with PBS (−) after removal of the medium, and the cells were detached from the plate with 0.05% trypsin-EGTA and dissociated, followed by collecting the cells in a 15-mL centrifuge tube and washing with PBS (−) again. A NucleoZOL reagent (Macherey-Nagel) was added to the spheroids, and RNA extracted according to the protocol recommended by the reagent manufacturer was determined to be template RNA. For real-time PCR analysis, PCR probes from QuantiFast Probe RT-PCR Kits (QIAGEN; No. 204454) and TagMan Gene Expression Assay Probe (Thermo Fisher Scientific) were used. PCR analysis was performed with a Rotor-Gene Q (QIAGEN) apparatus. The genes targeted for detection were the following three transcription factors: SOX2 (sex-determining region Y-box 2), OCT4 (octamer binding transcription factor 4), and NANOG (homeodomain transcription factor) as the probes for detecting the expression of undifferentiated stem cell marker genes; and β-actin was used as an endogenous control gene (FIG. 16).
For probes for detection of genes associated with primordial three germ layers, the following three triploblastic marker genes were used: SOX17 (sex-determining region Y-box 17; endoderm), GATA6 (GATA family of zinc finger transcription factors; mesoderm), and MAP2 (microtubule associated protein 2: ectoderm). For an endogenous control gene, TaqMan Gene Expression Assay Probe of ß-actin was used (FIG. 17).
In the gene expression analysis, relative quantification was performed according to the ΔΔCt method (Delta Delta Ct method). The results of analysis according to the ΔΔCt method show the amount of a gene expressed by control cells under the conditions of “no cell culture supplement, flat-bottom 2D growth, day 0” as “1.0” in relative terms, and the increase rate in “the expression level in spheroid proliferation on day 20” was determined by comparison.

[3] = tested on: HOS-143B (human osteosarcoma); assay: Study of concentration of cell culture supplement: spheroid formation; conditions: 96-well flat-bottom plate, 3 days of culture
Experimental: An aqueous solution of the polypeptide represented by formula (1) (0.5%) was diluted 4-fold to 1024-fold to prepare different diluted solutions (cell culture supplement), and 100 μl of the solution was added to each well of a commercial 96-well flat-bottom plate (CellBIND, Corning) and allowed to stand at 4° C. for 16 hours.
Thereafter, the excess cell culture supplement was removed, and the remaining solution was dried under reduced pressure at room temperature for 24 hours. HOS-143B (human osteosarcoma) was seeded at 3,000 cells/well in a culture plate coated with the cell culture supplement and cultured at 37° C. under 5% CO2 conditions. The medium used was DMEM+10% FBS.

[4] = day 20 of 3D spheroid culture, coated 96-well, 2D adhesion control without supplement = 1.0, ΔΔCt
[5] = day 20 of 3D spheroid culture, 2D control without supplement day 0 = 1.0, ΔΔCt
[6] = spheroids cultured for 20 days (FIG. 17 legend)

## (Pro-Hyp-Gly)n [cell culture supplement]
[1]
  HAND1 (mesoderm) gene expression level (increase vs control): 4.6 fold
  MAP2 (ectoderm) gene expression level (increase vs control): 24.2 fold
  NANOG gene expression level (increase vs control): 35.4 fold
  OCT4 gene expression level (increase vs control): 30.1 fold
  SOX2 gene expression level (increase vs control): 144.0 fold
  SOX17 (endoderm) gene expression level (increase vs control): 359.6 fold
[2]; day 20 of 3D spheroid culture
  GATA6 (mesoderm marker) gene expression: no gene expression of GATA6 (mesoderm marker) was detected
[2]; [4]
  NANOG gene expression level (increase vs control): 28.7 fold
  OCT4 gene expression level (increase vs control): 1.5 fold
  SOX2 gene expression level (increase vs control): 24.0 fold
[2]; [5]
  MAP2 gene expression level (increase vs control): 2.7 fold
  SOX17 gene expression level (increase vs control): 124.7 fold
[2]; [6]
  FOXA2 (endoderm) mRNA expression level: decreased
  GATA4 (mesoderm) mRNA expression: undetectable
[3]
  spheroid formation in plates coated with solutions diluted further than 256-fold: No formation of spheroids was observed
[3]; dilutions 4-fold to 1024-fold
  dilution of the 0.5% aqueous solution used for coating at which formation of spheroids was observed: ≤ 256 -fold diluted
